Laboratory results: patent publication US20150284375A1 (AJINOMOTO CO., INC., priority 2012, published 2015)

Target: T1, human TRPA1 (Homo sapiens, UniProt O75762)
T1 construct: expressed in transfected cells; host or cells: Human embryonic kidney-derived 293T cells, transiently transfected with the pcDNA3.1/zeo(+) human TRPA1 plasmid
Assay: Measurement of TRPA1 antagonist activity (intracellular calcium increase, FLIPR, allylisothiocyanate stimulation)
Format: cell-based
Settings: 293T cells transfected with human TRPA1; allylisothiocyanate 20 μM; concentration for 50% inhibitory rate; read-out: antagonism hTRPA1
From the text: Measurement of TRPA1 Antagonist Activity
Human TRPA1 Expression Plasmid
As cDNA encoding human TRPA1 (GenBank accession No. […]), a commercially available product was purchased (manufactured by Kazusa DNA Research Institute, clone No.: pFN21AB7348, item No.: FHC07217). Using this as a template, full-length human TRPA1 gene was amplified using the primer sequences shown below, by reaction using DNA polymerase (manufactured by Stratagene, trade name: PfuUltra High-Fidelity DNA Polymerase).
A recognition site (underlined) of restriction enzyme HindIII was added to the 5′ side, and XbaI site (underlined) was added to the 3′ side, and GTT of the template sequence was changed to termination codon TAG (bold). The obtained double stranded DNA was enzyme-digested with HindIII and XbaI, and introduced into a multicloning site of expression plasmid pcDNA3.1/zeo(+) (manufactured by Invitrogen) to give a human TRPA1 expression plasmid.
Human embryonic kidney-derived 293T cells were cultured in Dulbecco's Modified Eagle Medium containing 10% fetal bovine serum, 10 unit penicillin, and 10 μg streptomycin, plated on a petri dish having a diameter of 10 cm at 3×10^6 cells, and cultured for 24 hr. A medium containing a reduced amount of serum (manufactured by Invitrogen, trade name: OPTI-MEM, 600 μL), a gene insertion reagent (manufactured by Mirus Bio, trade name: Mirus TransIT-293, 18 μL), and human TRPA1 expression plasmid (6 μg) were mixed, the total amount of the mixture was added to the cells on the petri dish to allow for gene transfer. The cells were recovered about 8 hr later, plated on a poly-D-lysine coated 384 well black/clear bottom plate at 7,500-12,000 cells/well, and cultured overnight.
Measurement of Intracellular Calcium Increase
The 384 well plate was recovered, and the medium was removed. A calcium-bonded fluorescent indicator (manufactured by Molecular Device, trade name: Calcium4 Assay Kit, 40 μL) dissolved in assay buffer (1×HBSS, 20 mM HEPES, pH 7.2) was added, and the cells were stained in a 37° C. incubator for 1 hr. The cells were taken out at room temperature and left standing for 15 min or more. A test substance (10 μL) was added by a 384 well type dispenser, and the mixture was incubated at room temperature for 10 min. Then, allylisothiocyanate (12.5 μL) at a final concentration of 20 μM was added by a fluorescence imaging plate reader (manufactured by Molecular Device, FLIPR), and changes in the relative fluorescence intensity were measured for 5 min.
Test Substance Preparation
The test substance was dissolved in dimethyl sulfoxide and serially diluted with an assay buffer containing 0.1% bovine serum albumin (1×HBSS, 20 mM HEPES, pH 7.2) to a 5-fold concentration of the evaluation concentration. Allylisothiocyanate, which is a known TRPA1 activator, was dissolved in dimethyl sulfoxide to 100 mM, and further diluted 5-fold (100 μM) of the final concentration, like the test substance.
Calculation of Antagonist Activity
Under the test substance-free conditions, the maximum variation range of the fluorescence intensity before and after allylisothiocyanate stimulation was defined to be 100% activity rate, and the variation range before and after buffer stimulation was defined as 0% activity rate. The activity rate on addition of the test substance was determined, and the numerical value obtained by subtracting the activity rate from 100 was defined to be an inhibitory rate. 1050, which is the concentration of the test substance necessary for reaching the 50% inhibitory rate, was calculated from the sigmoid approximate curve by a spreadsheet software Excel-Fit.

T1 sequence (O75762 whole entry): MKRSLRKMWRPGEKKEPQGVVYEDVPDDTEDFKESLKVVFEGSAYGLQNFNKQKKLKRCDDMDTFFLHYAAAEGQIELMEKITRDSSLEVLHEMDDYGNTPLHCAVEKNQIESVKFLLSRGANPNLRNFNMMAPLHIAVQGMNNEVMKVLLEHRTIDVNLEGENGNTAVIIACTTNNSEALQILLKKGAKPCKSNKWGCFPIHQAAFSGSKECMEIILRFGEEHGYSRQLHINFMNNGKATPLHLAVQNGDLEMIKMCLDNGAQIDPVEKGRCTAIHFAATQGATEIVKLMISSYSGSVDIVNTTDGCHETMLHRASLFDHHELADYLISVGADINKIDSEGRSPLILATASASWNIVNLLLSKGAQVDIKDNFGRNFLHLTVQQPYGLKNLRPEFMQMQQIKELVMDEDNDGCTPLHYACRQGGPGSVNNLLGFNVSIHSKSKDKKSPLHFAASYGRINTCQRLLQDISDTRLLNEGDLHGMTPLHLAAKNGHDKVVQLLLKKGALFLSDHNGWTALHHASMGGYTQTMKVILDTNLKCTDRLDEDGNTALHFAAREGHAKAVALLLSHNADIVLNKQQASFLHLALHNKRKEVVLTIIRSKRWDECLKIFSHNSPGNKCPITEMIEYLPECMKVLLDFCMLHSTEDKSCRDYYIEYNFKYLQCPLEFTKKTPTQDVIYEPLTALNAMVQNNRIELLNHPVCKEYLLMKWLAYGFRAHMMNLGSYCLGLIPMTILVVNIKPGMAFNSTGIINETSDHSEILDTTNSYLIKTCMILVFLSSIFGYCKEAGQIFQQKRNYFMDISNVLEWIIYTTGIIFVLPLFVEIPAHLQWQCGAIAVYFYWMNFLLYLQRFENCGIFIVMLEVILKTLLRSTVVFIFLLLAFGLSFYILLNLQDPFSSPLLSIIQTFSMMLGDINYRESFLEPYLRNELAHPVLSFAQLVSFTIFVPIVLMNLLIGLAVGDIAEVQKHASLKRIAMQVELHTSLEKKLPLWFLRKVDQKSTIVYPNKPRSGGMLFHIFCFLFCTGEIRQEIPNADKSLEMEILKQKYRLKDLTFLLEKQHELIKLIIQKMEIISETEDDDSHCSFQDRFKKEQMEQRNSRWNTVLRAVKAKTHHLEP

**Q.** Which IC50 does the source give for `O=C(NCc1cccc(Oc2ccccc2C(F)(F)F)c1)[C@@H]1CCCN1S(=O)(=O)c1ccc(Cl)s1` [Example 23, (2S)-1-(5-chlorothiophene-2-sulfonyl)-N-({3-[2-(trifluoro-methyl)phenoxy]phenyl}methyl)pyrrolidine-2-carboxamide] here?
**A.** The IC50 was 0.38 µM.

**Q.** For `O=C(NCc1ccc(Oc2cccc(C(F)(F)F)c2)c(Cl)c1)[C@@H]1CCCN1S(=O)(=O)c1ccc(Cl)s1` [Example 24, (2S)-1-(5-chlorothiophene-2-sulfonyl)-N-({3-chloro-4-[3-(trifluoro-methyl)phenoxy]phenyl}methyl)pyrrolidine-2-carboxamide], which IC50 is on record?
**A.** The IC50 was 0.14 µM.

**Q.** `O=C(NCc1ccc(Oc2cccc(C(F)(F)F)c2)c(F)c1)[C@@H]1CCCN1S(=O)(=O)c1ccc(Cl)s1` [Example 25, (2S)-1-(5-chlorothiophene-2-sulfonyl)-N-({3-fluoro-4-[3-(trifluoro-methyl)phenoxy]phenyl}methyl)pyrrolidine-2-carboxamide] was tested. Which IC50 did it give?
**A.** The IC50 was 0.13 µM.

**Q.** With `O=C(NCc1c(F)cc(Oc2cccc(C(F)(F)F)c2)cc1F)[C@@H]1CCCN1S(=O)(=O)c1ccc(Cl)s1` [Example 26, (2S)-1-(5-chlorothiophene-2-sulfonyl)-N-({2,6-difluoro-4-[3-(trifluoro-methyl)phenoxy]phenyl}methyl)pyrrolidine-2-carboximide] as the compound, how does the IC50 read?
**A.** The IC50 was 0.93 µM.

**Q.** How did the IC50 turn out when `O=C(NCc1ccc(F)c(Oc2ccc(C(F)(F)F)cc2)c1F)[C@@H]1CCCN1S(=O)(=O)c1ccc(Cl)s1` [Example 27, (2S)-1-(5-chlorothiophene-2-sulfonyl)-N-({2,4-difluoro-3-[4-(trifluoro-methyl)phenoxy]phenyl}methyl)pyrrolidine-2-carboxamide] was run?
**A.** The IC50 was 0.22 µM.

**Q.** How did the IC50 turn out when `O=C(NCc1c(F)ccc(Oc2ccc(C(F)(F)F)cc2)c1Cl)[C@@H]1CCCN1S(=O)(=O)c1ccc(Cl)s1` [Example 28, (2S)-N-({2-chloro-6-fluoro-3-[4-(trifluoromethyl)phenoxy]phenyl}methyl)-1-(5-chlorothiophene-2-sulfonyl)pyrrolidine-2-carboxamide] was run?
**A.** Its IC50 is 1.9 µM.

**Q.** With `O=C(NCc1ccc(Oc2cccc(C(F)(F)F)c2)cc1)[C@@H]1C=CCN1S(=O)(=O)c1ccc(Cl)s1` [Example 29, (2S)-1-(5-chlorothiophene-2-sulfonyl)-N-({4-[3-(trifluoromethyl)phenoxy]phenyl}methyl)-2,5-dihydropyrrole-2-carboxamide] as the compound, how does the IC50 read?
**A.** The IC50 was 0.14 µM.

**Q.** Which IC50 does the source give for `O=C(NCc1ccc(Oc2cccc(C(F)(F)F)c2)cc1)[C@@H]1CCCN1S(=O)(=O)c1ccc(F)cc1` [Example 30, (2S)-1-(4-fluorophenyl)sulfonyl-N-({4-[3-(trifluoro-methyl)phenoxy]phenyl}methyl)pyrrolidine-2-carboxamide] here?
**A.** The IC50 was 0.23 µM.

**Q.** `O=C(NCc1ccc(Oc2cccc(C(F)(F)F)c2)cc1)[C@@H]1CCN1S(=O)(=O)c1ccc(Cl)s1` [Example 31, (2S)-1-(5-chlorothiophene-2-sulfonyl)-N-({4-[3-(trifluoro-methyl)phenoxy]phenyl}methyl)azetidine-2-carboxamide] was tested. Which IC50 did it give?
**A.** Its IC50 is 0.9 µM.

**Q.** For `O=C(NCc1cccc(Oc2ccc(C(F)(F)F)cc2)c1)[C@@H]1C=CCN1S(=O)(=O)c1ccc(Cl)s1` [Example 32, (2S)-1-(5-chlorothiophene-2-sulfonyl)-N-({3-[4-(trifluoro-methyl)phenoxy]phenyl}methyl)-2,5-dihydropyrrole-2-carboxamide], which IC50 is on record?
**A.** The IC50 was 0.019 µM.

**Q.** How did the IC50 turn out when `O=C(NCc1cccc(Oc2ccc(C(F)(F)F)cc2)c1)[C@@H]1CCCN1S(=O)(=O)c1ccc(F)cc1` [Example 33, (2S)-1-(4-fluorophenyl)sulfonyl-N-({3-[4-(trifluoro-methyl)phenoxy]phenyl}methyl)pyrrolidine-2-carboxamide] was run?
**A.** Its IC50 is 0.056 µM.

**Q.** Which IC50 does the source give for `O=C(NCc1cccc(Oc2ccc(C(F)(F)F)cc2)c1)[C@@H]1CCN1S(=O)(=O)c1ccc(Cl)s1` [Example 34, (2S)-1-(5-chlorothiophene-2-sulfonyl)-N-({3-[4-(trifluoro-methyl)phenoxy]phenyl}methyl)azetidine-2-carboxamide] here?
**A.** Its IC50 is 0.15 µM.

**Q.** With `O=C(NCc1cccc(Oc2ccc(C(F)(F)F)cc2)c1)C1COCCN1S(=O)(=O)c1ccc(Cl)s1` (centres unmarked) [Example 35, 4-(5-chlorothiophene-2-sulfonyl)-N-({3-[4-(trifluoro-methyl)phenoxy]phenyl}methyl)morpholine-3-carboxamide] as the compound, how does the IC50 read?
**A.** The IC50 was 0.81 µM.

**Q.** With `O=C(NCc1cccc(Oc2ccc(C(F)(F)F)cc2)c1)[C@@H]1C=CCN1S(=O)(=O)c1ccc(F)cc1` [Example 36, (2S)-1-(4-fluorophenyl)sulfonyl-N-({3-[4-(trifluoromethyl)phenoxy]phenyl}methyl)-2,5-dihydropyrrole-2-carboxamide] as the compound, how does the IC50 read?
**A.** The IC50 was 0.028 µM.

**Q.** For `O=C(NCc1cccc(Oc2ccc(C(F)(F)F)cc2)c1)[C@@H]1CCN1S(=O)(=O)c1ccc(F)cc1` [Example 37, (2S)-1-(4-fluorophenyl)sulfonyl-N-({3-[4-(trifluoro-methyl)phenoxy]phenyl}methyl)azetidine-2-carboxamide], which IC50 is on record?
**A.** The IC50 was 0.16 µM.

**Q.** `O=C(NCc1cccc(Oc2ccc(C(F)(F)F)cc2)c1)[C@@H]1CCCN1S(=O)(=O)c1ccc(Cl)cc1` [Example 38, (2S)-1-(4-chlorophenyl)sulfonyl-N-({3-[4-(trifluoro-methyl)phenoxy]phenyl}methyl)pyrrolidine-2-carboxamide] was tested. Which IC50 did it give?
**A.** Its IC50 is 0.076 µM.

**Q.** For `O=C(NCc1ccnc(Oc2ccc(C(F)(F)F)cc2)c1)[C@@H]1CCCN1S(=O)(=O)c1ccc(Cl)s1` [Example 39, (2S)-1-(5-chlorothiophene-2-sulfonyl)-N-({2-[4-(trifluoro-methyl)phenoxy]-4-pyridyl}methyl)pyrrolidine-2-carboxamide], which IC50 is on record?
**A.** Its IC50 is 0.064 µM.

**Q.** Which IC50 does the source give for `O=C(NCc1cc(Oc2ccc(C(F)(F)F)cc2)ccn1)[C@@H]1CCCN1S(=O)(=O)c1ccc(Cl)s1` [Example 40, (2S)-1-(5-chlorothiophene-2-sulfonyl)-N-({4-[4-(trifluoro-methyl)phenoxy]-2-pyridyl}methyl)pyrrolidine-2-carboxamide] here?
**A.** The IC50 was 0.066 µM.

**Q.** `O=C(NCc1ccc(COc2ccccc2)cc1)[C@@H]1CCCN1S(=O)(=O)c1ccc(Cl)s1` [Example 41, (2S)-1-(5-chlorothiophene-2-sulfonyl)-N-{[4-(phenoxymethyl)phenyl]methyl}pyrrolidine-2-carboxamide] was tested. Which IC50 did it give?
**A.** Its IC50 is 0.31 µM.

**Q.** Which IC50 does the source give for `O=C(NCc1ccc(COc2ccc(C(F)(F)F)cc2)cc1)[C@@H]1CCCN1S(=O)(=O)c1ccc(Cl)s1` [Example 42, (2S)-1-(5-chlorothiophene-2-sulfonyl)-N-((4-{[4-(trifluoro-methyl)phenoxy]methyl}phenyl)methyl)pyrrolidine-2-carboxamide] here?
**A.** The IC50 was 0.227 µM.

**Q.** For `O=C(NCc1ccc(COc2ccc(OC(F)(F)F)cc2)cc1)[C@@H]1CCCN1S(=O)(=O)c1ccc(Cl)s1` [Example 43, (2S)-1-(5-chlorothiophene-2-sulfonyl)-N-((4-{[4-(trifluoro-methoxy)phenoxy]methyl}phenyl)methyl)pyrrolidine-2-carboxamide], which IC50 is on record?
**A.** Its IC50 is 0.38 µM.

**Q.** Which IC50 does the source give for `Cc1ccc(OCc2ccc(CNC(=O)[C@@H]3CCCN3S(=O)(=O)c3ccc(Cl)s3)cc2)cc1` [Example 44, (2S)-1-(5-chlorothiophene-2-sulfonyl)-N-({4-[(4-methyl-phenoxy)methyl]phenyl}methyl)pyrrolidine-2-carboxamide] here?
**A.** The IC50 was 0.67 µM.

**Q.** For `COc1ccc(OCc2ccc(CNC(=O)[C@@H]3CCCN3S(=O)(=O)c3ccc(Cl)s3)cc2)cc1` [Example 45, (2S)-1-(5-chlorothiophene-2-sulfonyl)-N-({4-[(4-methoxy-phenoxy)methyl]phenyl}methyl)pyrrolidine-2-carboxamide], which IC50 is on record?
**A.** The IC50 was 0.67 µM.
